Experimental data taken from US6992188B1, “Substituted heterocyclic derivatives” (Pfizer, Inc., priority 1995, dated 2006).

melting point: 235 to 237 °C
Compound: CCC(CC)n1c(=O)[nH]c2c(Oc3c(C)cc(C)cc3C)nc(C)cc21 [Example 4, 1-(1-Ethylpropyl)-6-methyl-4-(2,4,6-trimethylphenoxy)-1,3-dihydro-imidazo[4,5-c]pyridin-2-one]
